The values below come from US9115072B2, “Compounds and method for reducing uric acid” (WELLSTAT THERAPEUTICS CORPORATION, priority 2008, dated 2015).

A short description of data set [1]: Rat oral single-dose pharmacokinetic study. As to conditions: 100 mg/kg single oral gavage. The class given is in vivo. The procedure:
• 1. Male Sprague-Dowley rats received single oral gavage of Compound EH, 100 mg/kg, and plasma was collected at certain times. • 2. Rat plasma was stored at −80° C. until the day of analysis. • 3. Samples were thawed on 37° C. bath for 5 min and vortexed at top speed for 10 sec. • 4. Rat plasma, 0.1 mL was mixed with 0.2 mL Acetonitrile, vortexed 1 min, spun down 14000 rpm, 17000 g, at 4° C., for 25 min. • 5. Supernatants were filtered through 0.45 micron, 4 mm, PTFE membrane syringe filter (Phenomenex #AF0-3102-52), and 15 microL were injected and resolved on Luna 3 micron, 100 A pore, C8(2), 150×3 mm, reverse phase column (Phenomenex#00F-4248-YO, SN#259151-7) in 50 min linear gradient from 40% to 69% of (0.1% Formic Acid, 89.9% Acetonitrile, 10% Methanol) at 0.25 mL/min, 107 bar, 37° C. column temperature, method 406975M1, Sequence 0226-09A, Agilent 1100 LC-MS.
All samples were run in duplicate, 210 nm and 230 nm Absorbances, Negative and Positive ionization spectrograms recorded.
Step 1. Rat plasma from V2 and V3 animals (“vehicle”, pooled), 0.19 mL, was mixed with 0.01 mL 20× stock of Compound EH in Methanol to make 500 microM, 250 microM, 125 microM, . . . , concentrations of Compound EH in plasma.
For example: 190 microL plasma+10 microL of 10 mM Compound EH in methanol=0.2 mL plasma with 500 microM Compound EH.
Step 2. Samples from step 1 were vortexed for 10 sec at top speed.
Step 3. 0.4 mL of acetonitrile was added to all samples from Step 2, and all vials were vortexed at top speed for 1 min.
Step 4. All samples from step 3 were spun down 14000 rpm, 17000 g, at 4° C., for 25 min.
Step 5. Supernatants were filtered through 0.45 micron, 4 mm, PTFE membrane syringe filter (Phenomenex #AF0-3102-52), 15 microL were injected and resolved on Luna 3 micron, 100 A pore, C8(2), 150×3 mm, reverse phase column

The next data set has as its target T1, human URAT1 (Homo sapiens, UniProt Q96S37).
T1 construct: The full-length hURAT1 cDNA was obtained from the vector pCMV6-XL5 and subcloned into the expression vector pCMV6-Neo
T1 sequence (Q96S37 1-553): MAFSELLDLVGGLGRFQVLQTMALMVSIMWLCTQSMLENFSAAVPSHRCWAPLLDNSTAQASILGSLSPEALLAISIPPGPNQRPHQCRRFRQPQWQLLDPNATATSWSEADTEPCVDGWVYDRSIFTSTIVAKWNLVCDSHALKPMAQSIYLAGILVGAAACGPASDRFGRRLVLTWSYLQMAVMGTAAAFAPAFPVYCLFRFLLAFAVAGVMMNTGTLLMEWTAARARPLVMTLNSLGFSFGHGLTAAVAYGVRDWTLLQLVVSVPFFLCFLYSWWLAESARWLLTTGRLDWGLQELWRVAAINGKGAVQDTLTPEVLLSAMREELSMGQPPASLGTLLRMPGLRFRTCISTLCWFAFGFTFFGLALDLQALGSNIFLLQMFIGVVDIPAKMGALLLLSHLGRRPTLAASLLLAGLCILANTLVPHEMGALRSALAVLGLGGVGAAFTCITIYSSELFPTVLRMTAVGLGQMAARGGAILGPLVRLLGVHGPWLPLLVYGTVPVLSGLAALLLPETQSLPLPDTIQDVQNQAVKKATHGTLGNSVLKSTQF
Put plainly: URAT1 inhibition assay, [8-14C] urate uptake in hURAT1-HEK cells. As to conditions: 50 μM [8-14C] urate. Format: cell-based. The procedure:
A suitable assay involves transfection of cells (e.g. human embryonic kidney cells; “HEK”) with a vector encoding human URAT1, followed by determination of the ability of transfected cells to take up radiolabeled uric acid. The activity of compounds as URAT1 inhibitors is evaluated by their ability to block uric acid uptake by transfected cells.
Urate (50-60 mCi/mmol; American Radio Chemicals, Cat. No. ARC0513).
Plasmid vector pCMV6-XL5 containing hURAT1 cDNA (Cat. No. SC125624) and the expression vector pCMV6-Neo (Cat. No. pCMVNEO) were obtained from OriGene Technologies, Inc. The full-length hURAT1 cDNA was obtained from the vector pCMV6-XL5 and subcloned into the expression vector pCMV6-Neo to create the hURAT1 expression plasmid pCMV6-hURAT1. The sequences were verified by automatic DNA sequencing.
For transfection experiments, cells were plated on 60 mm dishes in 1 ml media per dish. […] Stable transfectants expressing hURAT1 (herein after referred as hURAT1-HEK cells) or cells having only the expression vector pCMV6-Neo (herein after referred as mock-HEK cells) were verified using reverse transcription polymerase chain reaction (RT-PCR) methods.
Before the uptake assay started, the culture medium was removed and the cells were incubated for 5 min in 0.6 ml of HBSS. After that HBSS was removed, the prepared reaction solutions were added into each well and incubated for 5 min at room temperature. Then the reaction solution was removed, cells were washed twice with 0.6 ml of cold HBSS and lysed with 0.2 ml of 0.1 M NaOH for 20 min. […] Test compounds were dissolved in DMSO and the same concentration of DMSO was added into the wells of mock-HEK cells and the hURAT1-HEK cells that didn't contain test compounds. For each test compound, the uptake assay was performed 2 times and carried out in triplicate. Urate uptake of the cells for each test condition was presented as the average percent inhibition in comparison to the DMSO control. The radioactivity values obtained for the wells that contained DMSO were taken as 100% uptake of the cells. The observed concentration-percent inhibition data were fitted to a sigmoidal concentration-effect model, where: IC50^Slope=[(100*Conc^Slope)/% Inhibition]−Conc^Slope
Additional drug concentrations were tested for determination of IC-50 values for some compounds (Table 6).

In general, Cmax refers to the maximum level reached in the sampled fluid or tissue. The term IC50 denotes the concentration at which inhibition is half-maximal. Low readings indicate greater potency, high ones weaker potency. The inhibition is the share of the control response that was lost under treatment. For `Cc1ccc(CC(=O)O)cc1OCc1c(C)cccc1C` [Compound EH, 2-(3-(2,6-Dimethylbenzyloxy)-4-methylphenyl)acetic acid], in data set [1] (male, Sprague-Dawley, rat, plasma, time 0 HR, read-out: Compound EH concentration in rat plasma), the concentration at 0 h turned out to be 0 nM. The concentration at 0.25 h in data set [1] (male, Sprague-Dawley, rat, plasma, time 0.25 HR, read-out: Compound EH concentration in rat plasma) came out at 349 µM. In data set [1] (male, Sprague-Dawley, rat, plasma, time 0.5 HR, read-out: Compound EH concentration in rat plasma), the concentration at 0.5 h turned out to be 723 µM. In addition, in data set [1] (male, Sprague-Dawley, rat, plasma, time 2 HR, read-out: Compound EH concentration in rat plasma), the concentration at 2 h was found to be 79 µM. Moreover, the concentration at 4 h in data set [1] (male, Sprague-Dawley, rat, plasma, time 4 HR, read-out: Compound EH concentration in rat plasma) is 126 µM. In addition, the concentration at 6 h in data set [1] (male, Sprague-Dawley, rat, plasma, time 6 HR, read-out: Compound EH concentration in rat plasma) is 112 µM. In addition, the concentration at 8 h in data set [1] (male, Sprague-Dawley, rat, plasma, time 8 HR, read-out: Compound EH concentration in rat plasma) is 48 µM. The concentration at 24 h in data set [1] (male, Sprague-Dawley, rat, plasma, time 24 HR, read-out: Compound EH concentration in rat plasma) was found to be 0 nM. Further, in data set [1] (male, Sprague-Dawley, rat plasma), the highest concentration (Cmax) was 723 µM. Also, the “AUC(0-24)” value in data set [1] (rat plasma) is 1765 µM·h. On human URAT1, this compound gave an IC50 of 80 nM. Besides, the inhibition at 10 µM on human URAT1 (drug concentration typically 10 micromolar, read-out: % of Inhibition (uric acid uptake)) came out at 95.9%.
